How the values were obtained:
Format in all cases: functional, Homo sapiens
Design in all cases: dose or concentration left out as unconfirmed
Colon cancer organoid [1] = assay: Identification of compartment-specific drug sensitivities in O14 CRC organoid-stroma F14 CAF co-cultures. Organoid is transduced with Lucferase2-P2A-EGFP lentivirus, fibroblast with Renilla-dsRed lentivirus. Dual-Glo Luciferase assay is used to report viability data.
Colon cancer organoid [2] = assay: Identification of compartment-specific drug sensitivities in O20 CRC organoid-stroma F20 CAF co-cultures. Organoid is transduced with Lucferase2-P2A-EGFP lentivirus, fibroblast with Renilla-dsRed lentivirus. Dual-Glo Luciferase assay is used to report viability data.
Colon cancer organoid [3] = assay: Identification of compartment-specific drug sensitivities in O06 CRC organoid-stroma F06 CAF co-cultures. Organoid is transduced with Lucferase2-P2A-EGFP lentivirus, fibroblast with Renilla-dsRed lentivirus. Dual-Glo Luciferase assay is used to report viability data.
[4] = Transduced with Lucferase2-P2A-EGFP lentivirus
[5] = Transduced with Renilla-dsRed lentivirus

Row | SMILES | Cell Viability (Colon cancer organoid [1]; [4]) [%] | Cell Viability (Colon cancer organoid [1]; [5]) [%] | Cell Viability (Colon cancer organoid [2]; [4]) [%] | Cell Viability (Colon cancer organoid [2]; [5]) [%] | Cell Viability (Colon cancer organoid [3]; [4]) [%] | Cell Viability (Colon cancer organoid [3]; [5]) [%]
1 | Cc1cc2c(cc1N1C(=O)c3cccc4c(CCCO)ccc(c34)C1=O)n(C)c(=O)n2C | 52.1608 | 93.143 | 35.202 | 231.762 | 83.3962 | 164.269
2 | COc1ccc2c(O[C@@H]3C[C@H]4C(=O)N[C@]5(C(=O)O)CC5/C=C\CCCCC[C@H](NC(=O)OC5CCCC5)C(=O)N4C3)cc(-c3csc(NC(=O)C(C)C)n3)nc2c1C (stereo not given in full) [BI 1230] | 146.11 | 113.81 | 95.5192 | 162.279 | 110.189 | 125.746
3 | CCC(=N\O)/C(C)=C/c1ccc(F)c(C)c1 [A-226] | 131.471 | 101.092 | 93.31 | 115.263 | 127.527 | 100.08
4 | Cc1ccc(-c2ccc3c(ccc4sc5c(c43)NC[C@@H](C)NC5=O)n2)cn1 | 77.4963 | 56.184 | 154.003 | 70.7863 | 100.355 | 85.371
5 | O=C(Nc1cnc(Oc2ccc(F)cc2)nc1)N1CCc2ncccc2[C@@H]1c1ccc(F)cc1 [BAY-899] | 105.834 | 99.8567 | 151.912 | 104.61 | 92.2798 | 100.101
6 | CC(C)(C#Cc1ccc(NC(=O)COc2ccccc2C(=O)c2ccccc2)c(Cl)c1)C(=O)O [BI 2439] | 66.7268 | 62.0838 | 147.968 | 100.148 | 97.1512 | 131.731
7 | CN(C)C(=O)/C(C#N)=C/c1ccc(-c2nc3cnc4[nH]ccc4c3n2C2CCCCC2)o1 | 107.956 | 74.8679 | 75.2682 | 130.215 | 57.9428 | 82.2998
8 | CCc1cccc(CC)c1NC(=O)c1nn(C)c2c1CCc1cnc(Nc3ccc(C(=O)NC4CCN(C)CC4)cc3OC(F)(F)F)nc1-2 | 11.9525 | 117.182 | 94.5822 | 107.437 | 8.756 | 150.393
9 | O=C(NC[C@@H]1[C@H]2CN(C(=O)OCc3cc(C(F)(F)F)cc(C(F)(F)F)c3)C[C@@H]12)c1ccc2[nH]nnc2c1 [BI 2545] | 136.863 | 113.582 | 135.058 | 115.933 | 82.8507 | 98.3684
10 | CCN1CCN(c2ccc(Nc3cc(N(C)C(=O)Nc4c(Cl)c(OC)cc(OC)c4Cl)ncn3)cc2)CC1 [INFIGRATINIB] | 55.6946 | 110.833 | 101.232 | 52.242 | 0.6967 | 125.024
11 | CNc1nc(Nc2cnn([C@H]3CCN(C4COC4)C[C@@H]3F)c2Cl)ncc1C(F)(F)F | 109.423 | 94.4968 | 197.594 | 86.9942 | 94.4056 | 87.0484
12 | CCCOc1ccn2c(C(C)=O)cc(-c3cccc(OC)c3)c2c1 | 85.0656 | 86.803 | 77.121 | 110.044 | 110.241 | 146.669
13 | CN(C)C(=O)c1ccc(-c2cc(C(=O)N(C)C3CCCC3)no2)cc1O | 137.993 | 111.926 | 123.545 | 110.433 | 126.057 | 129.278
14 | CN1CCN(C(=O)C(C)(C)c2ccc(C(=O)Nc3cn4cc(-c5ccncc5)ccc4n3)cc2)CC1 [T3-CLK] | 20.1131 | 93.3356 | 17.3495 | 291.942 | 27.6026 | 129.967
15 | O=C(Nc1cccnc1)c1cc(-c2ccnc(F)c2)ccc1OCc1ccccc1 | 142.728 | 107.033 | 125.357 | 104.766 | 87.3368 | 83.1264
16 | NS(=O)(=O)c1cc(NC(=O)Cc2ccccc2)ccc1Oc1cccc(Cl)c1 [BAY-1797] | 92.6745 | 115.956 | 89.0927 | 86.996 | 89.5842 | 298.319
17 | COc1ccc(Cn2ccc3ccc(C(=O)NO)cc32)cc1 | 104.237 | 105.297 | 177.336 | 111.53 | 111.578 | 129.424
18 | COc1ccc2c(c1)O[C@@H](c1ccc(OC)c(OC)c1)C[C@H]2NC(=O)C1(c2ccc3c(c2)OC(F)(F)O3)CC1 [A-1596586] | 83.2966 | 94.4694 | 84.651 | 101.93 | 95.9961 | 117.187
19 | Cc1cc(C)cc(C(=O)NOCCCCCC(=O)NO)c1 | 50.2494 | 170.815 | 15.4081 | 402.959 | 13.8956 | 454.718
20 | COc1cc2c(cc1NS(=O)(=O)c1ccc(Br)cc1C)n(C)c(=O)n2C | 88.9015 | 103.244 | 86.7229 | 193.757 | 53.0589 | 146.987
21 | OCCn1cc(-c2ccc3c(c2)CCC3=NO)c(-c2ccncc2)n1 | 204.013 | 111.094 | 203.673 | 70.8995 | 81.3359 | 109.303
22 | COc1ccc(CCc2nc3cc(-c4c(C)noc4C)ccc3n2C[C@H](C)N2CCOCC2)cc1Cl | 147.618 | 121.055 | 96.1019 | 133.846 | 78.634 | 97.126
23 | CC(=O)C1=C(C)N(c2cccc(C(F)(F)F)c2)C(=O)N[C@H]1c1ccc(C#N)nc1 [BAY-677] | 123.312 | 108.035 | 134.265 | 107.791 | 73.3465 | 89.4043
24 | C=CC(=O)Nc1cccc(C(=O)Nc2ccc(Nc3cc(-c4[nH]c(SC)nc4C)ccn3)cc2)c1 | 116.406 | 116.909 | 175.79 | 71.728 | 87.3077 | 89.5907
25 | CN(C)C(=O)Cn1cc(-c2ccc(-c3cncc4ccccc34)cc2)cn1 | 88.4928 | 18.4119 | 98.3492 | 25.8647 | 83.3121 | 47.4852
